According to ChEMBL document CHEMBL3124777, “Synthesis and biological evaluation of thiazoline derivatives as new antimicrobial and anticancer agents” (Eur J Med Chem, 2014):
Converted amounts (≈) assume the structure as drawn. The source made the active and inactive calls. No cut-off for these calls is given here.

Legend:
C6 [1] = assay: Inhibition of DNA synthesis in rat C6 cells assessed as BrdU incorporation at IC50 after 24 hrs by ELISA; assay type: functional, cell-based
C6 [2] = assay: Inhibition of DNA synthesis in rat C6 cells assessed as BrdU incorporation after 24 hrs by ELISA; assay type: functional, cell-based
C6 [3] = assay: Cytotoxicity against rat C6 cells after 24 hrs by MTT assay; assay type: functional, cell-based; conditions: C6, 24 h
NIH3T3 = assay: Cytotoxicity against mouse NIH/3T3 cells after 24 hrs by MTT assay; assay type: cell-based; conditions: NIH3T3, 24 h
C6 [4] = assay: Cytotoxicity against rat C6 cells assessed as cell viability at 200 ug/ml after 24 hrs by MTT assay relative to control; assay type: functional; conditions: C6, 24 h, read-out: Activity
C6 [5] = assay: Cytotoxicity against rat C6 cells assessed as cell viability at 100 ug/ml after 24 hrs by MTT assay relative to control; assay type: functional; conditions: C6, 24 h, read-out: Activity
C6 [6] = assay: Cytotoxicity against rat C6 cells assessed as cell viability at 50 ug/ml after 24 hrs by MTT assay relative to control; assay type: functional; conditions: C6, 24 h, read-out: Activity
C6 [7] = assay: Cytotoxicity against rat C6 cells assessed as cell viability at 25 ug/ml after 24 hrs by MTT assay relative to control; assay type: functional; conditions: C6, 24 h, read-out: Activity
C6 [8] = assay: Cytotoxicity against rat C6 cells assessed as cell viability at 12 ug/ml after 24 hrs by MTT assay relative to control; assay type: functional; conditions: C6, 24 h, read-out: Activity
C6 [9] = assay: Cytotoxicity against rat C6 cells assessed as cell viability at 6 ug/ml after 24 hrs by MTT assay relative to control; assay type: functional; conditions: C6, 24 h, read-out: Activity
Candida albicans = assay: Antimicrobial activity against Candida albicans ATCC 22019 after 18 to 24 hrs by microbroth dilution method; assay type: functional
Fusarium culmorum = assay: Antimicrobial activity against wild type Fusarium culmorum after 48 to 72 hrs by microbroth dilution method; assay type: functional
Fusarium verticillioides = assay: Antimicrobial activity against Fusarium moniliforme NRRL 1866 after 48 to 72 hrs by microbroth dilution method; assay type: functional
Fusarium solani = assay: Antimicrobial activity against Fusarium solani NRRL 13414 after 48 to 72 hrs by microbroth dilution method; assay type: functional
Aspergillus ochraceus = assay: Antimicrobial activity against Aspergillus ochraceus NRRL 3174 after 48 to 72 hrs by microbroth dilution method; assay type: functional
Trichoderma harzianum = assay: Antimicrobial activity against Trichoderma harzianum NRRL 20565 after 48 to 72 hrs by microbroth dilution method; assay type: functional
Penicillium chrysogenum = assay: Antimicrobial activity against Penicillium chrysogenum NRRL 1951 after 48 to 72 hrs by microbroth dilution method; assay type: functional
Aspergillus parasiticus = assay: Antimicrobial activity against Aspergillus parasiticus NRRL 465 after 48 to 72 hrs by microbroth dilution method; assay type: functional
Bacillus subtilis = assay: Antimicrobial activity against Bacillus subtilis NRS-744 after 18 to 24 hrs by microbroth dilution method; assay type: functional
Micrococcus luteus = assay: Antimicrobial activity against Micrococcus luteus NRLL B-4375 after 18 to 24 hrs by microbroth dilution method; assay type: functional
Pseudomonas aeruginosa = assay: Antimicrobial activity against Pseudomonas aeruginosa […] after 18 to 24 hrs by microbroth dilution method; assay type: functional
Escherichia coli = assay: Antimicrobial activity against Escherichia coli ATCC 25922 after 18 to 24 hrs by microbroth dilution method; assay type: functional
Listeria monocytogenes = assay: Antimicrobial activity against Listeria monocytogenes ATCC 7644 after 18 to 24 hrs by microbroth dilution method; assay type: functional
Staphylococcus aureus = assay: Antimicrobial activity against Staphylococcus aureus NRRL B-767 after 18 to 24 hrs by microbroth dilution method; assay type: functional

Structure (SMILES)	MIC (Candida albicans) [µg/mL]	MIC (Fusarium culmorum) [µg/mL]	MIC (Fusarium verticillioides) [µg/mL]	MIC (Fusarium solani) [µg/mL]	MIC (Aspergillus ochraceus) [µg/mL]	MIC (Trichoderma harzianum) [µg/mL]	MIC (Penicillium chrysogenum) [µg/mL]	MIC (Aspergillus parasiticus) [µg/mL]	MIC (Bacillus subtilis) [µg/mL]	MIC (Micrococcus luteus) [µg/mL]	MIC (Pseudomonas aeruginosa) [µg/mL]	MIC (Escherichia coli) [µg/mL]	IC50 (C6 [3]) [µg/mL]	IC50 (NIH3T3) [µg/mL]	viability at 200 µg/mL (C6 [4]) [%]	viability at 100 µg/mL (C6 [5]) [%]	viability at 50 µg/mL (C6 [6]) [%]	viability at 25 µg/mL (C6 [7]) [%]	viability at 12 µg/mL (C6 [8]) [%]	viability at 6 µg/mL (C6 [9]) [%]	further results
N#Cc1ccc(-c2cs/c(=N/NC(=O)CSc3nnnn3-c3ccccc3)n2-c2ccccc2)cc1	250 (≈ 490 µM)	250 (≈ 490 µM)	250 (≈ 490 µM)	250 (≈ 490 µM)	250 (≈ 490 µM)	250 (≈ 490 µM)	250 (≈ 490 µM)	250 (≈ 490 µM)	250 (≈ 490 µM)	250 (≈ 490 µM)	250 (≈ 490 µM)	250 (≈ 490 µM)	> 200	453 (≈ 888 µM)	54	59.8	61.1	64.2	74.1	78.8	MIC (Listeria monocytogenes): 250 µg/mL (≈ 490 µM); MIC (Staphylococcus aureus): 500 µg/mL (≈ 979 µM)
O=C(CSc1ncccn1)N/N=c1/scc(-c2ccc(Cl)cc2)n1-c1ccccc1	250 (≈ 551 µM)	250 (≈ 551 µM)	250 (≈ 551 µM)	250 (≈ 551 µM)	250 (≈ 551 µM)	250 (≈ 551 µM)	250 (≈ 551 µM)	250 (≈ 551 µM)	500 (≈ 1100 µM)	250 (≈ 551 µM)	250 (≈ 551 µM)	250 (≈ 551 µM)	83.3 (≈ 183 µM)	397 (≈ 874 µM)	39.7	45.5	61.8	91.1	91.6	95.9	MIC (Listeria monocytogenes): 250 µg/mL (≈ 551 µM); MIC (Staphylococcus aureus): 500 µg/mL (≈ 1100 µM)
Cn1nnnc1SCC(=O)N/N=c1/scc(-c2ccccc2)n1-c1ccccc1	250 (≈ 590 µM)	250 (≈ 590 µM)	250 (≈ 590 µM)	250 (≈ 590 µM)	250 (≈ 590 µM)	125 (≈ 295 µM)	250 (≈ 590 µM)	250 (≈ 590 µM)	250 (≈ 590 µM)	250 (≈ 590 µM)	250 (≈ 590 µM)	250 (≈ 590 µM)	67.7 (≈ 160 µM)	173 (≈ 409 µM)	26.8	38.8	56.2	64.2	80.7	85.2	MIC (Listeria monocytogenes): 250 µg/mL (≈ 590 µM); MIC (Staphylococcus aureus): 250 µg/mL (≈ 590 µM)
Cn1cnnc1SCC(=O)N/N=c1/scc(-c2ccc(C#N)cc2)n1-c1ccccc1	250 (≈ 559 µM)	250 (≈ 559 µM)	250 (≈ 559 µM)	250 (≈ 559 µM)	250 (≈ 559 µM)	125 (≈ 279 µM)	250 (≈ 559 µM)	250 (≈ 559 µM)	250 (≈ 559 µM)	250 (≈ 559 µM)	250 (≈ 559 µM)	250 (≈ 559 µM)	> 200	153 (≈ 343 µM)	52.6	55.2	58.8	58.8	62.6	70.2	MIC (Listeria monocytogenes): 250 µg/mL (≈ 559 µM); MIC (Staphylococcus aureus): 250 µg/mL (≈ 559 µM)

Now from value to molecule, other results behind:

MIC (Candida albicans) [µg/mL]	MIC (Fusarium culmorum) [µg/mL]	MIC (Fusarium verticillioides) [µg/mL]	MIC (Fusarium solani) [µg/mL]	MIC (Aspergillus ochraceus) [µg/mL]	MIC (Trichoderma harzianum) [µg/mL]	MIC (Penicillium chrysogenum) [µg/mL]	MIC (Aspergillus parasiticus) [µg/mL]	MIC (Bacillus subtilis) [µg/mL]	MIC (Micrococcus luteus) [µg/mL]	MIC (Pseudomonas aeruginosa) [µg/mL]	MIC (Escherichia coli) [µg/mL]	Structure (SMILES)	IC50 (C6 [3]) [µg/mL]	IC50 (NIH3T3) [µg/mL]	viability at 200 µg/mL (C6 [4]) [%]	viability at 100 µg/mL (C6 [5]) [%]	viability at 50 µg/mL (C6 [6]) [%]	viability at 25 µg/mL (C6 [7]) [%]	viability at 12 µg/mL (C6 [8]) [%]	viability at 6 µg/mL (C6 [9]) [%]	further results
250 (≈ 546 µM)	250 (≈ 546 µM)	250 (≈ 546 µM)	250 (≈ 546 µM)	250 (≈ 546 µM)	125 (≈ 273 µM)	250 (≈ 546 µM)	250 (≈ 546 µM)	250 (≈ 546 µM)	250 (≈ 546 µM)	250 (≈ 546 µM)	250 (≈ 546 µM)	Cc1nnc(SCC(=O)N/N=c2/scc(-c3ccc(F)cc3)n2-c2ccccc2)s1	27.3 (≈ 59.7 µM)	383 (≈ 838 µM)	26.5	34.9	37.4	50.1	73.7	74.3	inhibition (C6 [1]): Active; inhibition (C6 [2]): Dose-dependent effect; MIC (Listeria monocytogenes): 250 µg/mL (≈ 546 µM); MIC (Staphylococcus aureus): 250 µg/mL (≈ 546 µM)
250 (≈ 571 µM)	125 (≈ 286 µM)	250 (≈ 571 µM)	250 (≈ 571 µM)	250 (≈ 571 µM)	125 (≈ 286 µM)	250 (≈ 571 µM)	250 (≈ 571 µM)	500 (≈ 1140 µM)	250 (≈ 571 µM)	250 (≈ 571 µM)	250 (≈ 571 µM)	Cc1ccc(-c2cs/c(=N/NC(=O)CSc3nnnn3C)n2-c2ccccc2)cc1	36.3 (≈ 83 µM)	243 (≈ 556 µM)	39.7	39.7	44.3	60.7	68.8	88	MIC (Listeria monocytogenes): 250 µg/mL (≈ 571 µM); MIC (Staphylococcus aureus): 250 µg/mL (≈ 571 µM)
250 (≈ 534 µM)	250 (≈ 534 µM)	250 (≈ 534 µM)	250 (≈ 534 µM)	250 (≈ 534 µM)	125 (≈ 267 µM)	250 (≈ 534 µM)	250 (≈ 534 µM)	500 (≈ 1070 µM)	250 (≈ 534 µM)	250 (≈ 534 µM)	250 (≈ 534 µM)	Cn1nnnc1SCC(=O)N/N=c1/scc(-c2ccc([N+](=O)[O-])cc2)n1-c1ccccc1	> 200	167 (≈ 356 µM)	58.6	64.1	69.2	69.3	76.2	80.4	MIC (Listeria monocytogenes): 250 µg/mL (≈ 534 µM); MIC (Staphylococcus aureus): 250 µg/mL (≈ 534 µM)
